Laboratory results from US20060252798A1, “Metal ion chelators and therapeutic use thereof” (priority 2003, published 2006).

Legend:
M109 lung carcinoma = experiment: Inhibition of M109 lung carcinoma growth in vivo; design: species or system mouse; details: 6 mg/kg (MTD), day 12
Description: Inhibition of M109 Lung Cancer Cell Growth by Iron Chelators In Vivo Female CD2F1 mice aged 8-10 weeks old were sc implanted with 1×10^5 M109 cells. The tumour cells were passaged in CD2F1 mice by preparing a brei from the tumour and injecting it sc.^20 Dp44mT was dissolved in 30% (v/v) propylene glycol in saline and injected iv 4 days after tumour engraftment, twice daily for 5 days followed by a “rest period” of 2 days when the animal was not injected. On the twelfth day after tumour implantation, mice were sacrificed using methoxyfluorane and cardiac puncture performed. Blood counts and erythrocyte indices were measured using a Sysmex Blood Counter (Prince of Wales Hospital, Sydney, Australia). Mouse body weight changes during the treatment period were recorded. The tumours were weighed and fixed for histological examination. The experimental groups consisted of eight mice for the control and each treatment (Table 5).
As a relevant positive control, animals were administered Triapine® at its MTD (6 mg/kg). The tumour weight was measured on the twelfth day after the tumour cell implantation.

[1] = system: MCF-7 breast cancer cells; experiment: MTT cellular proliferation assay, MCF-7; format: cell-based, human; details: Homo sapiens, MCF7, 72 h, Table 3; 72 h, MTT; mean ± SD; read-out: IC50 MCF-7 breast cancer
Description: […] […] […] After this incubation, 0.01 mL of MTT was added to each well and the plates incubated for 2 h at 37° C. The cells were then solubilised by adding 0.1 mL of 10% SDS-50% isobutanol in 0.01 M HCl and the plates then read at 570 nm on a scanning multiwell spectrophotometer (Titertek Multiscan; Beckman Instruments Inc, California). MTT colour formation was directly proportional to the number of viable cells.
(§1) Dp2mT served as a negative control.
(§2) Dp2mT served as a negative control as the methyl group at the 2-position hinders Fe-chelation.

[2] = Mouse weight loss and haematological indices in M109-bearing mice; format: in vivo; details: Triapine 6 mg/kg; Mean ± SEM
Description: The tumour cells were passaged in CD2F1 mice by preparing a brei from the tumour and injecting it sc.^20 Dp44mT was dissolved in 30% (v/v) propylene glycol in saline and injected iv 4 days after tumour engraftment, twice daily for 5 days followed by a “rest period” of 2 days when the animal was not injected. On the twelfth day after tumour implantation, mice were sacrificed using methoxyfluorane and cardiac puncture performed. Blood counts and erythrocyte indices were measured using a Sysmex Blood Counter (Prince of Wales Hospital, Sydney, Australia). Mouse body weight changes during the treatment period were recorded. The tumours were weighed and fixed for histological examination. The experimental groups consisted of eight mice for the control and each treatment (Table 5).

[3] = Maximum tolerated dose in CD2F1 hybrid mice; format: in vivo; details: female, CD2F1, mouse, in vivo, iv
Description: BALB/c and DBA/2 mice were obtained from Animal Resources Centre (University of New South Wales (UNSW), Sydney, Australia) and crossed to produce CD2F1 animals (all procedures used were approved by the Animal Ethics Committee, UNSW). Groups of eight female CD2F1 mice (8-10 weeks old) were fed and watered ad-libitum, and injected via the tail vein with compounds being studied in 30% propylene glycol in 0.9% sterile saline, twice a day, 6 h apart, 5 days/week for 2 weeks. The maximum tolerated dose (MTD) was defined as the dose at which 30% of a cohort either died or lost weight in excess of 10%.^19

[4] = system: SK-N-MC neuroepithelioma cells; experiment: MTT cellular proliferation assay, SK-N-MC; format: cell-based, human; details: Homo sapiens, SK-N-MC; Table 3; 0-25 μM, 72 h, MTT; mean ± SD; read-out: IC50 SK-N-MC neuroepithelioma
Description: […] […] After this incubation, 0.01 mL of MTT was added to each well and the plates incubated for 2 h at 37° C. The cells were then solubilised by adding 0.1 mL of 10% SDS-50% isobutanol in 0.01 M HCl and the plates then read at 570 nm on a scanning multiwell spectrophotometer (Titertek Multiscan; Beckman Instruments Inc, California). MTT colour formation was directly proportional to the number of viable cells.
The effect of the compounds on the proliferation of SK-N-MC neuroepithelioma cells was examined using the MTT assay (described above).
as §1

SK-Mel-28 melanoma cells = experiment: MTT cellular proliferation assay, SK-Mel-28; format: cell-based, human; details: Homo sapiens, SK-MEL-28, 72 h, Table 3, mean ± SD
Description: The final concentration of the compounds was 0.39-50 μM. […] […] After this incubation, 0.01 mL of MTT was added to each well and the plates incubated for 2 h at 37° C. The cells were then solubilised by adding 0.1 mL of 10% SDS-50% isobutanol in 0.01 M HCl and the plates then read at 570 nm on a scanning multiwell spectrophotometer (Titertek Multiscan; Beckman Instruments Inc, California). MTT colour formation was directly proportional to the number of viable cells.
as §1, §2

NC(=S)NN=Cc1ncccc1N [Triapine, 3-aminopyridine-2-carboxaldehyde thiosemicarbazone]
tumour weight (M109 lung carcinoma): 10 % of the control | IC50 [1]: 3000 ± 1500 nM | Body weight loss [2]: 5.3 ± 0.4 g | Haematocrit [2]: 0.28 ± 0.01 | Haemoglobin [2]: 8.6 ± 0.5 g/dL | Platelets [2]: 976 ± 171 10^9/L | RBC [2]: 6.1 ± 0.4 10^12/L | WBC [2]: 1.4 ± 0.3 10^9/L | MTD at 2 weeks [3]: 6 mg/kg | IC50 [4]: 260 nM | IC50 (SK-Mel-28 melanoma cells): 2600 ± 600 nM
